The test system of experiment [1] is MMTV driven gene expression. In words: Glucocorticoid mediated transactivation of MMTV driven gene expression (luciferase reporter). It is filed as cell-based, Human. The settings on record: A549 or MG63 cells, 6 hr incubation. From the text: Glucocorticoid Mediated Transactivation of MMTV Driven Gene Expression
Human A549 lung epithelial cells or human MG63 osteosarcoma were engineered to contain a renialla luciferase gene under the control of the distal region of the LTR from the mouse mammary tumour virus as previously described (Austin, R. H., Maschera, B., Walker, A., Fairbairn, L., Meldrum, E., Farrow, S. and Uings, I. J. Mometasone furoate is a less specific glucocorticoid than fluticasone propionate. European Respiratory Journal 2002 20 1386-1392).
Compounds were solvated and diluted in DMSO, and transferred directly into assay plates such that the final concentration of DMSO was 0.7%. Following the addition of cells (40K per well), plates were incubated for 6 hr. Luciferase activity was determined using the Firelight kit (Packard, Pangbourne, UK).
(A reporter such as luciferase makes a cellular process visible.)

The test system of experiment [2] is NFkB activity. In words: Glucocorticoid mediated transrepression of NFkB activity (A549 ELAM promoter alkaline phosphatase reporter, TNFα stimulated). It is filed as cell-based. The settings on record: A549 cells, 3 ng/ml human recombinant TNFα, 16 hours; read-out: pIC50 NFkB assay (converted). The text has this: Glucocorticoid mediated Transrepression of NFkB activity.
Human A549 lung epithelial cells were engineered to contain a secreted placental alkaline phosphatase gene under the control of the distal region of the NFkB dependent ELAM promoter as previously described in Ray, K. P., Farrow, S., Daly, M., Talabot, F. and Searle, N. “Induction of the E-selectin promoter by interleukin 1 and tumour necrosis factor alpha, and inhibition by glucocorticoids” Biochemical Journal. 1997 328 707-15.
Compounds were solvated and diluted in DMSO, and transferred directly into assay plates such that the final concentration of DMSO was 0.7%. Following the addition of cells (40K per well), plates were incubated for 1 hr prior to the addition of 3 ng/ml human recombinant TNFα. Following continued incubation for 16 hours, alkaline phosphatase activity was determined by measuring the change in optical density at 405 nm with time following the addition of 0.7 volumes of assay buffer (1 mg/ml p-nitrophenylphosphate dissolved in 1 M diethanolamine, 0.28M NaCl, 0.5 mM MgCl2).

Experiment [3] addresses T1, glucocorticoid receptor (Homo sapiens, UniProt P04150).
T1 construct: purchased Pan Vera (Madison, Wis., USA)
T1 sequence (P04150 1-777): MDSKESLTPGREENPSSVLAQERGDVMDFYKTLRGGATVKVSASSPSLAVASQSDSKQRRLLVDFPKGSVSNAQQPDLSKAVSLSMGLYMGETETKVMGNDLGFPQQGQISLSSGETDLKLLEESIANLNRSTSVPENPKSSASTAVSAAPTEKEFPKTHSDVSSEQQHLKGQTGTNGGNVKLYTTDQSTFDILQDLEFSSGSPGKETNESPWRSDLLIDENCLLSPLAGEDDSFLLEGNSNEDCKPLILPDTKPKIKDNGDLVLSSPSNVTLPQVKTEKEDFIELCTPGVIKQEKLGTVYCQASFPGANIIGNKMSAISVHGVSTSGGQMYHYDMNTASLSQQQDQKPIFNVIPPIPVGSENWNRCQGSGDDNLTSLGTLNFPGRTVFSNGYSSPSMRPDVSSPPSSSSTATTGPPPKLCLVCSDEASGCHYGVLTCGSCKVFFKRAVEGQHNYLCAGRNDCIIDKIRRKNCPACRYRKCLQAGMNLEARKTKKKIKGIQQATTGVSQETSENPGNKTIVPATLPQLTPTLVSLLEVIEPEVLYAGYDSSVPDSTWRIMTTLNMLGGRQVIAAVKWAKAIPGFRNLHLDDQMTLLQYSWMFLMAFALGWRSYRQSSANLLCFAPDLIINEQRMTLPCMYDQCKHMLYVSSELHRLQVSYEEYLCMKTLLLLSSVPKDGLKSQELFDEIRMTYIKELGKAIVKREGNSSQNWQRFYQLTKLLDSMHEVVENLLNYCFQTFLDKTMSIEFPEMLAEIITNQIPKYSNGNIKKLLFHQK
The experiment is described as follows: Glucocorticoid receptor binding assay (fluorescence polarisation competition). The settings on record: displacement of fluorescent glucocorticoid, 22° C., 2 hours; read-out: pIC50 glucocorticoid receptor binding assay (converted). As to the method: Glucocorticoid Receptor Binding Assay
The ability of compounds to bind to the glucocorticoid receptor was determined by assessing their ability to compete with fluorescent-labelled glucocortioid using a kit supplied by Pan Vera (Madison, Wis., USA) or using in house reagents. Compounds were solvated and diluted in DMSO, and transferred directly into assay plates. Fluorescent glucocorticoid and partially purified glucocorticoid receptor with a stabilisation peptide were added to the plates and incubated at 22° C. for 2 hours in the dark. Binding of the compound was assessed by analysing the displacement of fluorescent ligand by measuring the decrease in fluorescence polarisation signal from the mixture.
(Fluorescence polarisation rises when a labelled molecule tumbles more slowly, as on binding a larger partner.)

Each structure is given as a SMILES string.

Regarding `Cc1ccc2c(NCC(O)(CC3(C)CCCc4ccccc43)C(F)(F)F)cccc2n1` (single isomer, unassigned) [Example 2-D2, 1,1,1-Trifluoro-3-[(2-methyl-5-quinolinyl)amino]-2-[(1-methyl-1,2,3,4-tetrahydro-1-naphthalenyl)methyl]-2-propanol], in experiment [1], the “efficacy in the MMTV transactivation assay compared to the NFkB assay” value (shortened to “efficacy … compared to the NFkB assay”) is recorded as “reduced efficacy”. With `CCC1(CC(O)(CNc2cccc3ncccc23)C(F)(F)F)CCCc2ccccc21` (stereo not shown) [Example 6-D1, 3-(1-Ethyl-1,2,3,4-tetrahydro-1-naphthalenyl)-1,1,1-trifluoro-2-[(5-guinolinylamino)methyl]-2-propanol], the IC50 in experiment [2] was less than 31.6 nM; in experiment [3], less than 100 nM. Also, the “efficacy … compared to the NFkB assay” value in experiment [1] is recorded as “reduced efficacy”. `Cc1ccc2c(NCC(O)(CC3(C)CCCc4ccccc43)C(F)(F)F)cccc2n1` (single isomer, unassigned) [Example 2-D1E1, 1,1,1-Trifluoro-3-[(2-methyl-5-quinolinyl)amino]-2-[(1-methyl-1,2,3,4-tetrahydro-1-naphthalenyl)methyl]-2-propanol]: the “efficacy … compared to the NFkB assay” value in experiment [1] is recorded as “reduced efficacy”.

With `Cc1ccc2c(NCC(O)(CC3(C)CCCc4ccccc43)C(F)(F)F)cccc2n1` (single isomer, unassigned) [Example 2-D2E2, 1,1,1-Trifluoro-3-[(2-methyl-5-quinolinyl)amino]-2-[(1-methyl-1,2,3,4-tetrahydro-1-naphthalenyl)methyl]-2-propanol], in experiment [1], the “efficacy … compared to the NFkB assay” value is listed as “reduced efficacy”. The same measure, in the same setting: the value for `CCC1(CC(O)(CNc2cccc3nc(C)ccc23)C(F)(F)F)CCCc2ccccc21` (single isomer, unassigned) [Example 5-D2, 3-(1-Ethyl-1,2,3,4-tetrahydro-1-naphthalenyl)-1,1,1-trifluoro-2-[[(2-methyl-5-quinolinyl)amino]methyl]-2-propanol] was “reduced efficacy”.

In the case of `CC1(CC(O)(CNc2cccc3cnccc23)C(F)(F)F)CCCc2ccccc21` (single isomer, unassigned) [Example 3-D2E1, 1,1,1-Trifluoro-3-(5-isoguinolinylamino)-2-[(1-methyl-1,2,3,4-tetrahydro-1-naphthalenyl)methyl]-2-propanol], the “efficacy … compared to the NFkB assay” value in experiment [1] is reported as “reduced efficacy”. Also, the IC50 in experiment [3] is less than 100 nM. As for `Cc1ccc2c(NCC(O)(CC3(C)CCCc4ccccc43)C(F)(F)F)cccc2n1` (single isomer, unassigned) [Example 2-D2E1, 1,1,1-Trifluoro-3-[(2-methyl-5-quinolinyl)amino]-2-[(1-methyl-1,2,3,4-tetrahydro-1-naphthalenyl)methyl]-2-propanol], in experiment [1], the “efficacy … compared to the NFkB assay” value was “reduced efficacy”. On to `CCC1(CC(O)(CNc2cccc3cnccc23)C(F)(F)F)CCCc2ccccc21` (single isomer, unassigned) [Example 4-D1E2, 3-(1-Ethyl-1,2,3,4-tetrahydro-1-naphthalenyl)-1,1,1-trifluoro-2-[(5-isoquinolinylamino)methyl]-2-propanol], for which, in experiment [2], the IC50 was less than 31.6 nM. Also, the “efficacy … compared to the NFkB assay” value in experiment [1] is “reduced efficacy”.

As to `CCC1(CC(O)(CNc2cccc3nc(C)ccc23)C(F)(F)F)CCCc2ccccc21` (single isomer, unassigned) [Example 5-D1E1, 3-(1-Ethyl-1,2,3,4-tetrahydro-1-naphthalenyl)-1,1,1-trifluoro-2-[[(2-methyl-5-quinolinyl)amino]methyl]-2-propanol], in experiment [1], the “efficacy … compared to the NFkB assay” value was “reduced efficacy”. On to `CC1(CC(O)(CNc2cccc3cnccc23)C(F)(F)F)CCCc2ccccc21` (single isomer, unassigned) [Example 3-D1E2, 1,1,1-Trifluoro-3-(5-isoguinolinylamino)-2-[(1-methyl-1,2,3,4-tetrahydro-1-naphthalenyl)methyl]-2-propanol], for which, in experiment [2], the IC50 is less than 31.6 nM. Besides, the “efficacy … compared to the NFkB assay” value in experiment [1] was “reduced efficacy”. In the case of `CC1(CC(O)(CNc2cccc3ncccc23)C(F)(F)F)CCCc2ccccc21` (single isomer, unassigned) [Example 1-D1E1, 1,1,1-Trifluoro-3-(1-methyl-1,2,3,4-tetrahydro-1-naphthalenyl)-2-[(5-guinolinylamino)methyl]-2-propanol], the IC50 in experiment [2] was less than 31.6 nM; in experiment [3], less than 100 nM. Moreover, the “efficacy … compared to the NFkB assay” value in experiment [1] is reported as “reduced efficacy”.

With `CCC1(CC(O)(CNc2cccc3cnccc23)C(F)(F)F)CCCc2ccccc21` (single isomer, unassigned) [Example 4-D1, 3-(1-Ethyl-1,2,3,4-tetrahydro-1-naphthalenyl)-1,1,1-trifluoro-2-[(5-isoquinolinylamino)methyl]-2-propanol], in experiment [1], the “efficacy … compared to the NFkB assay” value was “reduced efficacy”. In addition, the IC50 in experiment [3] was less than 100 nM.

Turning to `CC1(CC(O)(CNc2cccc3cnccc23)C(F)(F)F)CCCc2ccccc21` (stereo not shown) [Example 3-D1, 1,1,1-Trifluoro-3-(5-isoguinolinylamino)-2-[(1-methyl-1,2,3,4-tetrahydro-1-naphthalenyl)methyl]-2-propanol], the IC50 in experiment [2] was less than 31.6 nM; in experiment [3], less than 100 nM. Further, in experiment [1], the “efficacy … compared to the NFkB assay” value is “reduced efficacy”. On to `CC1(CC(O)(CNc2cccc3cnccc23)C(F)(F)F)CCCc2ccccc21` (stereo not shown) [Example 3-D2, 1,1,1-Trifluoro-3-(5-isoguinolinylamino)-2-[(1-methyl-1,2,3,4-tetrahydro-1-naphthalenyl)methyl]-2-propanol], for which the “efficacy … compared to the NFkB assay” value in experiment [1] is “reduced efficacy”. As to `CC1(CC(O)(CNc2cccc3ncccc23)C(F)(F)F)CCCc2ccccc21` (stereo not shown) [Example 1-D1, 1,1,1-Trifluoro-3-(1-methyl-1,2,3,4-tetrahydro-1-naphthalenyl)-2-[(5-guinolinylamino)methyl]-2-propanol], the IC50 was less than 31.6 nM in experiment [2] and less than 100 nM in experiment [3]. In addition, the “efficacy … compared to the NFkB assay” value in experiment [1] is listed as “reduced efficacy”. For `Cc1ccc2c(NCC(O)(CC3(C)CCCc4ccccc43)C(F)(F)F)cccc2n1` (single isomer, unassigned) [Example 2-D1, 1,1,1-Trifluoro-3-[(2-methyl-5-quinolinyl)amino]-2-[(1-methyl-1,2,3,4-tetrahydro-1-naphthalenyl)methyl]-2-propanol], the IC50 in experiment [2] is less than 31.6 nM; in experiment [3] it was less than 100 nM. In addition, the “efficacy … compared to the NFkB assay” value in experiment [1] is given as “reduced efficacy”.

In the case of `CCC1(CC(O)(CNc2cccc3nc(C)ccc23)C(F)(F)F)CCCc2ccccc21` (single isomer, unassigned) [Example 5-D2E1, 3-(1-Ethyl-1,2,3,4-tetrahydro-1-naphthalenyl)-1,1,1-trifluoro-2-[[(2-methyl-5-quinolinyl)amino]methyl]-2-propanol], the “efficacy … compared to the NFkB assay” value in experiment [1] is reported as “reduced efficacy”.
